Data: patent publication US20260042771A1, “HETEROCYCLIC COMPOUND FOR INDUCING DEGRADATION OF G12V MUTANT KRAS PROTEIN” (Astellas Pharma Inc., priority 2022, published 2026)

What was measured:
[1] = molecular target: T1, RAS G12V (Homo sapiens, UniProt P01116, G12V); experiment: Test Example 1: RAS G12V degradation activity by Cell ELISA in PA-TU-8902; type: cell-based; settings: for DC50: 50% degradation concentration of RAS G12V, PA-TU-8902 cells, 24 hours, Cell ELISA, corrected with β-actin; for Dmax: PaTu 8902, degradation rate at the most active concentration, DMSO = 0%, Example No. 7 at 3 μM = 100%, PA-TU-8902, 24 hours
T1 construct: host or cells: PA-TU-8902 human pancreatic cancer cells
Description: Test Example 1: Evaluation of RAS G12V Degradation Activity on Human KRAS G12V Mutant-Positive Pancreatic Cancer Line PA-TU-8902
The RAS G12V degradation activity of test compounds was evaluated by measuring the expression levels of RAS G12V by Cell ELISA.
PA-TU-8902 cells (DSMZ, ACC 179) were seeded at 36 μL per well on 384-well plates (from Greiner bio-one) to give 1.5×10^4 cells per well. As for the cell culture conditions, DMEM medium (from Sigma-Aldrich) containing 10% fetal bovine serum (from Cytiva) was used in the presence of 5% CO2 at 37° C.
The next day, the test compounds (10 points having final concentrations in the range of 3 μM to 0.1 nM), the compound of Example No. 7 having a final concentration of 3 μM as a positive control and dimethyl sulfoxide (DMSO), which was the solvent for the test compounds, as a negative control were diluted 100-fold with a fresh medium and were added at 4 μL per well. The cells were cultured for 24 hours.
The next day, the culture supernatant was removed, and 4% paraformaldehyde phosphate buffer (from FUJIFILM Wako Pure Chemical Corporation) was added at 20 μL per well. The plates were allowed to stand for 30 minutes at room temperature to thus immobilize the cells. Then, the supernatant was removed, and 0.1% Triton X-100 (from Amersham Biosciences)-containing Phosphate buffered saline (PBS) was added at 20 μL per well. After allowing to stand at room temperature for 10 minutes, the supernatant was removed. PBS was added at 25 μL per well, and the supernatant was removed to thus wash each well. The washing was performed twice in total. Subsequent washing operations were performed in the same manner. Next, the supernatant was removed, and 0.5% sodium dodecyl sulfate (SDS; from ThermoFisher Scientific)-containing PBS was added at 20 μL per well. After allowing to stand at room temperature for 10 minutes, the supernatant was removed by centrifugation of the plates. After washing with PBS, the supernatant was removed by centrifugation, and blocking solution (PVDF Blocking Reagent for Can Get Signal [from TOYOBO Co., Ltd.]) was added at 20 μL per well. After allowing to stand for 30 minutes at room temperature, the supernatant was removed by centrifugation and a solution obtained by diluting, as primary antibodies, anti-Ras (G12V Mutant Specific) antibody (Ras (G12V Mutant Specific) (D2H12) Rabbit mAb; from Cell Signaling Technology; 500-fold diluted) and […] (Anti-beta Actin antibody; from Abcam; 5,000-fold diluted) with Can Get Signal Solution 2 (from TOYOBO Co., Ltd.) was added at 15 μL per well. The plates were allowed to stand overnight at 4° C.
The next day, the supernatant was removed by centrifugation and washed with PBS. The supernatant was removed by centrifugation, a solution obtained by diluting, as secondary antibodies, anti-rabbit IgG antibody (IRDye 800CW Goat anti-Rabbit IgG; from LI-COR Biosciences) and anti-mouse IgG antibody (IRDye 680RD Donkey anti-Mouse IgG; from LI-COR Biosciences) 1,000-fold with Can Get Signal Solution 2 was added at 15 μL per well. After allowing to stand at room temperature for 1 hour, the supernatant was removed by centrifugation and washed with PBS. After removing the supernatant, the plates were dried with air at room temperature for 2 hours or more, and the 700 nm and 800 nm fluorescent signals were measured with Aerius (from LI-COR Biosciences).
The degradation rate of RAS G12V was calculated with the RAS G12V signaling value at the time of addition of DMSO taken as 0%, which was corrected with the signaling value of β-actin, and with the RAS G12V signaling value at the time of addition of the compound of Example No. 7 at a final concentration of 3 μM taken as 100%. […]

[2] = system: human KRAS G12V mutant-positive pancreatic cancer line PA-TU-8902; experiment: Test Example 3: non-anchorage-dependent cell growth inhibition, spheroid 3D culture; type: cell-based; settings: PaTu 8902, 144 h, PA-TU-8902 spheroid 3D culture, 6 days; for IC50: CellTiter Glo 2.0
Description: Test Example 3: Evaluation of Non-Anchorage-Dependent Cell Growth Inhibitory Effect on Human KRAS G12V Mutant-Positive Pancreatic Cancer Line PA-TU-8902
The non-anchorage-dependent cell growth inhibitory effect of test compounds was evaluated by spheroid 3D cell culture.
PA-TU-8902 cells were seeded on low-cell-adhesive round bottom 384-well plates (PrimeSurface: from Sumitomo Bakelite) at 36 µL/well to give 5×10^2 cells per well. The cell culture was performed under the same conditions as in Test Example 1.
The next day, the test compounds (8 to 10 points having final concentrations in the range of 3 μM to 0.1 nM) and DMSO, which was the solvent for the test compounds, as a negative control were diluted 100-fold with a fresh medium and were added at 4 μL per well. After culturing in the presence of 5% CO2 at 37° C. for 6 days, CellTiter Glo 2.0 (from Promega) was added at 20 μL per well. After stirring with a plate mixer (from FINEPCR) at normal temperature for 1 hour, the luminescent signals were measured with ARVO X3 (from PerkinElmer).
With the signaling value in treatment with DMSO taken as 0% inhibition and with the signaling value in the medium alone without cells taken as 100% inhibition, the 50% inhibitory concentration values (IC50) were calculated by Sigmoid-Emax nonlinear regression analysis. The inhibition rate at 30 nM was calculated for Example No. 17.

T1 sequence (P01116 1-188 isoform P01116-2 G12V): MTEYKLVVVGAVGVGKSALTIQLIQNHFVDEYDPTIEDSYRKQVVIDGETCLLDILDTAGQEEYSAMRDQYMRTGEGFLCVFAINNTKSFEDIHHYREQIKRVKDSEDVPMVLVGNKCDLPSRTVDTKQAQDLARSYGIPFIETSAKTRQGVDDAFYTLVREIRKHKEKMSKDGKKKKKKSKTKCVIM

SMILES	DC50 [1]	Dmax [1]	IC50 [2]	inhibition at 0.03 µM ([2]; 30 nM, CellTiter Glo 2.0, read-out: inhibition rate at 30 nM)
Cc1c(F)cc2[nH]ncc2c1-c1c(C2CC2)cc2c(N3CCOCC3)nc(OCC(C)(C)CN(C)C)nc2c1OCc1ccc(C(=O)N2CCN(Cc3ccc4c(c3)n(C)c(=O)n4N3CCC(=O)NC3=O)C[C@@H]2C)cc1 (atropisomer, axis not shown) [Example 9]	6 nM	88%	47 nM	
CO[C@@H](C)COc1nc(N2CC(C#N)C2)c2cc(C3CC3)c(-c3c(C)c(F)cc4[nH]ncc34)c(OCc3ccc(C(=O)N4CCN(Cc5ccc6c(N7CCC(=O)NC7=O)nn(C)c6c5)CC4)cc3)c2n1 (atropisomer, axis not shown) [Example 12]	13 nM	87%	33 nM	
CO[C@@H](C)COc1nc(NCc2cccnc2)c2cc(C3CC3)c(-c3c(C)c(F)cc4[nH]ncc34)c(OCc3ccc(C(=O)N4CCN(Cc5ccc6c(c5)n(C)c(=O)n6C5CCC(=O)NC5=O)C[C@@H]4C)cc3)c2n1 (some centres unmarked) [Example 4]	7 nM	83%	74 nM	
CO[C@@H](C)COc1nc(N2CC[C@H]2C(N)=O)c2cc(C3CC3)c(-c3c(C)c(F)cc4[nH]ncc34)c(OCc3ccc(CN4CCN(Cc5ccc6c(N7CCC(=O)NC7=O)nn(C)c6c5)C[C@@H]4C)cc3)c2n1 (atropisomer, axis not shown) [Example 19]	26 nM	78%	68 nM	
CO[C@@H](C)COc1nc(N2CC(C#N)C2)c2cc(C3CC3)c(-c3c(C)c(F)cc4[nH]ncc34)c(OCc3ccc(C(=O)N4CCN(Cc5ccc6c(c5)n(C)c(=O)n6C5CCC(=O)NC5=O)C[C@@H]4C)cc3)c2n1 (stereo partly drawn) [Example 2, 1-{(7 M)-6-cyclopropyl-8-({4-[(2S)-4-([1-(2,6-dioxopiperidin-3-yl)-3-methyl-2-oxo-2,3-dihydro-1H-benzimidazol-5-yl]methyl)-2-methylpiperazine-1-carbonyl]phenyl)methoxy)-7-(6-fluoro-5-methyl-1H-indazol-4-yl)-2-[(2S)-2-methoxypropoxy]quinazolin-4-yl)azetidine-3-carbonitrile]	4 nM	89%	21 nM	
CO[C@@H](C)COc1nc(N2CC(C#N)C2)c2cc(C3CC3)c(-c3c(C)c(F)cc4[nH]ncc34)c(OCc3ccc(C(=O)N4CC[C@H](CN(C)Cc5ccc6c(N7CCC(=O)NC7=O)nn(C)c6c5)C4)cc3)c2n1 (atropisomer, axis not shown) [Example 15]	92 nM	85%	139 nM	
Cc1c(F)cc2[nH]ncc2c1-c1c(C2CC2)cc2c(NC3CN(c4ncccn4)C3)nc(OCC(C)(C)CN(C)C)nc2c1OCc1ccc(C(=O)N2CCN(Cc3ccc4c(c3)n(C)c(=O)n4C3CCC(=O)NC3=O)C[C@@H]2C)cc1 (some centres unmarked) [Example 8]	5 nM	81%	48 nM	
CO[C@@H](C)COc1nc(N2CC(C#N)C2)c2cc(C3CC3)c(-c3c(C)c(F)cc4[nH]ncc34)c(OCc3ccc(C(=O)N4CC5(CN(Cc6ccc7c(N8CCC(=O)NC8=O)nn(C)c7c6)C5)C4)cc3)c2n1 (atropisomer, axis not shown) [Example 16]	162 nM	95%	255 nM	
CO[C@@H](C)COc1cc(OC2CN(C(=O)NCCN(C)C)C2)c2cc(C3CC3)c(-c3c(C)c(F)cc4[nH]ncc34)c(OCc3ccc(C(=O)N4CCN(Cc5ccc6c(N7CCC(=O)NC7=O)nn(C)c6c5)C[C@@H]4C)cc3)c2n1 (atropisomer, axis not shown) [Example 18]	65 nM	78%	149 nM	
Cc1c(F)cc2[nH]ncc2c1-c1c(C2CC2)cc2c(N3CC(C#N)C3)nc(OC3CCOCC3)nc2c1OCc1ccc(C(=O)N2CCN(Cc3ccc4c(N5CCC(=O)NC5=O)nn(C)c4c3)C[C@@H]2C)cc1 (atropisomer, axis not shown) [Example 21]			11 nM	
CO[C@@H](C)COc1nc(N2CC[C@@H](N)[C@@H](F)C2)c2cc(C3CC3)c(-c3c(C)c(F)cc4[nH]ncc34)c(OCc3ccc(C(=O)N4CCN(Cc5ccc6c(c5)n(C)c(=O)n6C5CCC(=O)NC5=O)C[C@@H]4C)cc3)c2n1 (stereo partly drawn) [Example 3, 3-(5-{[(3S)-4-{4-[({4-[(3S,4R)-4-amino-3-fluoropiperidin-1-yl]-6-cyclopropyl-7-(6-fluoro-5-methyl-1H-indazol-4-yl)-2-[(2S)-2-methoxypropoxy]quinazolin-8-yl)oxy)methyl]benzoyl}-3-methylpiperazin-1-yl]methyl}-3-methyl-2-oxo-2,3-dihydro-1H-benzimidazol-1-yl)piperidine-2,6-dione]	29 nM	74%	67 nM	
CO[C@@H](C)COc1nc(N2CC(C#N)C2)c2cc(C3CC3)c(-c3c(C)c(F)cc4[nH]ncc34)c(OCc3ccc(C(=O)N4CCC5(CCN(CCOc6cccc(N7CCC(=O)NC7=O)c6)CC5)CC4)cc3)c2n1 (atropisomer, axis not shown) [Example 22]			5 nM	
CO[C@@H](C)COc1nc(N2CC[C@H]2C(N)=O)c2cc(C3CC3)c(-c3c(C)c(F)cc4[nH]ncc34)c(OCc3ccc(CN4CCN(Cc5ccc6c(N7CCC(=O)NC7=O)nn(C)c6c5)CC4=O)cc3)c2n1 (atropisomer, axis not shown) [Example 20, (2S)-1-{(7 M)-6-cyclopropyl-8-({4-[(4-{[3-(2,4-dioxo-1,3-diazinan-1-yl)-1-methyl-1H-indazol-6-yl]methyl)-2-oxopiperazin-1-yl)methyl]phenyl}methoxy)-7-(6-fluoro-5-methyl-1H-indazol-4-yl)-2-[(2S)-2-methoxypropoxy]quinazolin-4-yl)azetidine-2-carboxyamide]	29 nM	85%	85 nM	
CO[C@@H](C)COc1nc(N2CC(C#N)C2)c2cc(C3CC3)c(-c3c(C)c(F)cc4[nH]ncc34)c(OCc3ccc(C(=O)N4CCN(Cc5ccc6c(N7CCC(=O)NC7=O)nn(C)c6c5)C[C@@H]4C)cc3)c2n1 (atropisomer, axis not shown) [Example 14]	4 nM	100%	12 nM	
CO[C@@H](C)COc1cc(OC2CN(C(=O)NCCN(C)C)C2)c2cc(C3CC3)c(-c3c(C)c(F)cc4[nH]ncc34)c(OCc3ccc(C(=O)N4CCN(Cc5ccc6c(c5)n(C)c(=O)n6C5CCC(=O)NC5=O)C[C@@H]4C)cc3)c2n1 (some centres unmarked) [Example 17]	9 nM	70%		50%
